From patent publication EP2330125A2 (priority 2005, dated 2007)
Like-named read-outs stand apart in the source and are kept apart here.

Assays:
[1] = type: in vivo, Sprague-Dawley rat (Levin DIO rats); conditions: for percent inhibition of body weight: rat DIO
Description: (§1) DIO male rats are obtained from Charles River Laboratories, Inc. (Wilmington, MA). […] The animals typically achieve a mean body weight of about 500 g. Levin DIO rats are habituated to caging environment for 7 days. During the 3 nights of habituation, animals receive a single intraperitoneal (IP) injection of vehicle. […] Food intake is measured by an automated food intake measuring system (BioDAQ, Research Diets) at 5 sec intervals throughout the course of the study. Body weight is recorded nightly.
Body composition was measured prior to and after drug treatment using NMR (Echo Medical Systems, Houston, TX). For body composition measurements, rats are briefly placed (~1 min) in a well-ventilated plexiglass tube that was then inserted into a specialized rodent NMR machine. This enabled the calculation of changes in actual grams of fat and dry lean tissue (e.g., grams of body fat after treatment -grams of body fat at baseline = change in grams of body fat) and changes in % body composition for fat and dry lean tissue (e.g., % body fat after treatment -% body fat at baseline = change in % body fat). All data are represented as mean ± SEM. Analysis of variance (ANOVA) and post-hoc tests were used to test for group difference. […] Graphs and results are typically presented as vehicle-corrected changes in percent body weight, body fat and changes in body protein
Values are as provided as percent inhibition of body weight after infusion for the time periods indicated.

[2] = rat, in vivo
Description: as §1
Values are given as percent inhibition of body weight. […] Body Weight: ∼2% difference is statistically significant. Food Intake: ∼20% difference is statistically significant.

[3] = rat, in vivo; remark: listed apart in the source
Description: as §1
Values are given as percent inhibition of body weight.
Values are given as percent inhibition of body weight. […] Body Weight: ∼2% difference is statistically significant.

[4] = type: in vivo, NIH/Swiss mice; set-up: key to percent inhibition of food intake: "ns" means "not significant" compared to vehicle
Description: For studies of the effects of PPF polypeptides on longer-term (chronic) food intake and/or body composition, the amount of food consumed over a period of two weeks was measured. For these studies of the effects of PPF polypeptides on longer-term food intake and/or body composition, mice were housed singly for 1 week prior to the beginning of treatment. Throughout the experiments, food intake and body weight were monitored daily. […] At the end of each study, animals were sacrificed after a 2-4 hr fast by isoflurane overdose. Blood was collected into Na-heparin-flushed syringes by cardiac puncture, and plasma was immediately frozen. In some studies, body composition was determined using dual-energy X-ray absorptiometry (DEXA; PixiMus, GE Lunar). In some studies, body composition (such as the amounts of fat and protein) were measured pre- and post treatment using a rodent NMR machine (EchoMRI-700™), in which animals are placed in a restraining tube and placed in the NMR for 2 minutes, and the amount of fat and lean mass, in grams, is quantified.

GLP Receptor = type: biochemical
[5] = type: in vivo, C57BL/6 mice; conditions: mouse DIO
Excerpt: An exemplary assay can be one that involves utilization of a diet-induced obese (DIO) mouse model for metabolic disease. […] During the study, the mice can continue to eat their high-fat diet Water can be provided ad libitum throughout the study.
DIO mice can be implanted with subcutaneous (SC) intrascapular osmotic pumps to deliver either vehicle (50% dimethylsulfoxide (DMSO) in water) or a compound of the invention.
Body weights and food intake can be measured over regular intervals throughout the study periods. Respiratory quotient (RQ, defined as CO2 production ÷ O2 consumption) and metabolic rate can be determined using whole-animal indirect calorimetry (Oxymax, Columbus Instruments, Columbus, OH). The mice can be euthanized by isoflurane overdose, and an index of adiposity (bilateral epididymal fat pad weight) measured. Moreover, prior to determination of epididymal weight, body composition (lean mass, fat mass) for each mouse can be analyzed using a Dual Energy X-ray Absorptiometry (DEXA) instrument per manufacturer's instructions (Lunar Piximus, GE Imaging System).

calcitonin receptor = type: binding
[6] = Gastric emptying (acetaminophen passed); type: in vivo, Levin rats
Excerpt: Values are given as percent inhibition of gastric emptying and percent acetaminophen passed.

[7] = type: in vivo, Levin rats
Excerpt: Values are given as percent reduction of blood glucose level.

CGRP receptors = molecular target: T1, CGRP receptors (Homo sapiens, UniProt O60894+Q16602); type: binding
T1 construct: SK-N-MC and L6 cells expressing endogenous CGRP receptors; endogenous in cells; host or cells: SK-N-MC cell membranes

CT receptor = molecular target: T2, CT receptor (Rattus norvegicus, UniProt P32214); type: cell-based
T2 construct: host or cells: 'C1A' (not explained)
T2 sequence (P32214 25-479 isoform P32214-2 limits assumed): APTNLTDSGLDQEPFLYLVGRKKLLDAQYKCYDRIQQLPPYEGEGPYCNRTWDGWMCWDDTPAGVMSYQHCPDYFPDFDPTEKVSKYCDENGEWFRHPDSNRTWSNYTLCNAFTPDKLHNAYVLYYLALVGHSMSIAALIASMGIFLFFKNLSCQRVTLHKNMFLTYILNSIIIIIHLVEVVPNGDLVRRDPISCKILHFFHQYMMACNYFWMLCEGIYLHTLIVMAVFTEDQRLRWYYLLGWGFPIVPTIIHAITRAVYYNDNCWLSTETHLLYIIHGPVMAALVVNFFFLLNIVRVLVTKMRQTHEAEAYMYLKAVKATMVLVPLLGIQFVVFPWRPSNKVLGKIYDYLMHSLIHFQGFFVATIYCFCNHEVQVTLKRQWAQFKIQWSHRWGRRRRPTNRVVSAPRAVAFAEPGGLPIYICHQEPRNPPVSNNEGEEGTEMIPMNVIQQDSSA

[8] = infusions in normal men; cited from earlier work

T1 sequence (Q16602 23-461): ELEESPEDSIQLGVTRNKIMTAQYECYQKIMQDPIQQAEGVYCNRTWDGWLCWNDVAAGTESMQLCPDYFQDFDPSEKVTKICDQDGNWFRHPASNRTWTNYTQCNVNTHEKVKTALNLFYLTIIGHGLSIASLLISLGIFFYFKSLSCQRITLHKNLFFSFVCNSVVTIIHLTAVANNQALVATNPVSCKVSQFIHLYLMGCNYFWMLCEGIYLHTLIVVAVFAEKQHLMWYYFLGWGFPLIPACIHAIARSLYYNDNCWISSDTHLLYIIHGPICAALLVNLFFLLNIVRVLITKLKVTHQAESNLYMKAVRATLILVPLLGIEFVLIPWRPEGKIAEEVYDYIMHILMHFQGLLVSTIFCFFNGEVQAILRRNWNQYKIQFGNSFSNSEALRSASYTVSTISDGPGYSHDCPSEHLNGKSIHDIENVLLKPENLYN
T1 sequence (O60894 27-148 partner): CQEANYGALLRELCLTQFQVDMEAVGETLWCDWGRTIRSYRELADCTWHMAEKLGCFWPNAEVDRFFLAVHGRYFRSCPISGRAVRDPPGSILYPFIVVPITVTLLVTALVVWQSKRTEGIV

## Amylin
[1]; rat, in vivo
  1 Wk BW Loss: 6%
[2]
  FI Iinhib @ 8 hr: 0%
[3]
  1 Wk BW Loss: 0%

## CCK8
[4]; mouse, in vivo
  percent inhibition of food intake: ns

## DF(P-CH2SO3)MGWNMFGKR KCNTATCATQRLANELVRLQTYPRTNVGSNTY [SEQ ID NO: 398]
GLP Receptor; read-out: IC50 in a GLP Receptor cyclase (RIN) assay
  IC50: 1000 nM

## KCNTATCATQRLANFLVRSSNNLGPVLPPTNVGSNTY [rat amylin]
[5]; infusion 30 nmol/kg/d, Day 2
  percent inhibition of body weight: 1.9%
[5]; infusion 30 nmol/kg/d, Day 7
  percent inhibition of body weight: 1.5%
[5]; infusion 30 nmol/kg/d, Day 14
  percent inhibition of body weight: 2.1%
[5]; infusion 30 nmol/kg/d, Day 21
  percent inhibition of body weight: 2.5%
[5]; infusion 30 nmol/kg/d, Day 28
  percent inhibition of body weight: 2.2%
[5]; infusion 75 nmol/kg/d, Day 2
  percent inhibition of body weight: 1.5%
[5]; infusion 75 nmol/kg/d, Day 7
  percent inhibition of body weight: 1.4%
[5]; infusion 75 nmol/kg/d, Day 14
  percent inhibition of body weight: 2.1%
[5]; infusion 100 nmol/kg/d, Day 2
  percent inhibition of body weight: 1.6%
[5]; infusion 100 nmol/kg/d, Day 7
  percent inhibition of body weight: 1.8%
[5]; infusion 100 nmol/kg/d, Day 14
  percent inhibition of body weight: 3.1%
[5]; infusion 100 nmol/kg/d, Day 21
  percent inhibition of body weight: 3.8%
[5]; infusion 100 nmol/kg/d, Day 28
  percent inhibition of body weight: 4.4%
[5]; infusion 100 nmol/kg/d, Day 35
  percent inhibition of body weight: 6.9%
[5]; infusion 100 nmol/kg/d, Day 42
  percent inhibition of body weight: 8.6%
[5]; infusion 100 nmol/kg/d, Day 49
  percent inhibition of body weight: 9.6%
[5]; infusion 100 nmol/kg/d, Day 63
  percent inhibition of body weight: 10.3%
[5]; infusion 100 nmol/kg/d, Day 70
  percent inhibition of body weight: 11.4%
[5]; infusion 100 nmol/kg/d, Day 77
  percent inhibition of body weight: 12%
[5]; infusion 100 nmol/kg/d, Day 84
  percent inhibition of body weight: 13.4%
[5]; infusion 300 nmol/kg/d, Day 2
  percent inhibition of body weight: 1.1%
[5]; infusion 300 nmol/kg/d, Day 7
  percent inhibition of body weight: -0.7%
[5]; infusion 300 nmol/kg/d, Day 14
  percent inhibition of body weight: -0.9%
[5]; infusion 300 nmol/kg/d, Day 21
  percent inhibition of body weight: -1.5%
[5]; infusion 300 nmol/kg/d, Day 28
  percent inhibition of body weight: -1.5%
Calcitonin receptor; read-out: Receptor Binding CT
  IC50: 3 nM
[4]; 25 nmol/kg, 30 min
  percent inhibition of food intake: 46%
[4]; 25 nmol/kg, 60 min
  percent inhibition of food intake: 35%
[4]; 25 nmol/kg, 120 min
  percent inhibition of food intake: 21%
[4]; 25 nmol/kg, 180 min
  percent inhibition of food intake: 17%
[4]; 25 nmol/kg, 240 min
  percent inhibition of food intake: 7%
[4]; 250 nmol/kg, 30 min
  percent inhibition of food intake: 70%
[4]; 250 nmol/kg, 60 min
  percent inhibition of food intake: 53%
[4]; 250 nmol/kg, 120 min
  percent inhibition of food intake: 38%
[4]; 250 nmol/kg, 180 min
  percent inhibition of food intake: 30%
[4]; 300 nmol/kg, 30 min
  percent inhibition of food intake: 88%
[4]; 300 nmol/kg, 60 min
  percent inhibition of food intake: 90%
[4]; 300 nmol/kg, 120 min
  percent inhibition of food intake: 51%
[4]; 300 nmol/kg, 180 min
  percent inhibition of food intake: 21%
[4]; Mouse Food Intake, 60 min
  60 min ED50: 9 nmol/kg
[6]; 69 nmol/kg/d, 21 days on study
  %inhibition of gastric emptying: 45%
  %passed (acetaminophen): 55%
[6]; 100 µg/kg/d, 26 days on study
  %inhibition of gastric emptying: 24%
  %passed (acetaminophen): 76%
[7]; 23 nmol/kg/d, day 26
  %Reduction of blood glucose, OGTT, 30: 2.3%
  %Reduction of blood glucose, OGTT, 60: 19.2%
  %Reduction of blood glucose, OGTT, 120: 2.1%
  %Reduction of blood glucose, OGTT, Basal: 4%
[7]; 69 nmol/kg/d, day 14
  %Reduction of blood glucose, OGTT, 15: -0.2%
  %Reduction of blood glucose, OGTT, 30: 11%
  %Reduction of blood glucose, OGTT, 60: 5.9%
  %Reduction of blood glucose, OGTT, 120: 1.2%
  %Reduction of blood glucose, OGTT, Basal: 6%
[1]; infusion 0.7 nmol/kg/d, Day 7
  percent inhibition of body weight: 1.6%
[1]; infusion 0.7 nmol/kg/d, Day 14
  percent inhibition of body weight: 1.3%
[1]; infusion 0.7 nmol/kg/d, Day 21
  percent inhibition of body weight: 1.6%
[1]; infusion 0.7 nmol/kg/d, Day 28
  percent inhibition of body weight: 2.1%
[1]; infusion 7 nmol/kg/d, Day 7
  percent inhibition of body weight: 5.7%
[1]; infusion 7 nmol/kg/d, Day 14
  percent inhibition of body weight: 7.3%
[1]; infusion 7 nmol/kg/d, Day 21
  percent inhibition of body weight: 7.9%
[1]; infusion 7 nmol/kg/d, Day 28
  percent inhibition of body weight: 8.3%
[1]; infusion 18.4 nmol/kg/d, Day 7
  percent inhibition of body weight: 5.9%
[1]; infusion 18.4 nmol/kg/d, Day 14
  percent inhibition of body weight: 7.5%
[1]; infusion 18.4 nmol/kg/d, Day 21
  percent inhibition of body weight: 6.7%
[1]; infusion 18.4 nmol/kg/d, Day 28
  percent inhibition of body weight: 6.5%
[1]; infusion 23 nmol/kg/d, Day 7
  percent inhibition of body weight: 7.8%
[1]; infusion 23 nmol/kg/d, Day 14
  percent inhibition of body weight: 9.4%
[1]; infusion 23 nmol/kg/d, Day 21
  percent inhibition of body weight: 8.8%
[1]; infusion 23 nmol/kg/d, Day 28
  percent inhibition of body weight: 8.8%
[1]; infusion 23 nmol/kg/d, Day 35
  percent inhibition of body weight: 9.5%
[1]; infusion 23 nmol/kg/d, Day 42
  percent inhibition of body weight: 10%
[1]; infusion 23 nmol/kg/d, Day 49
  percent inhibition of body weight: 9.8%
[1]; infusion 23 nmol/kg/d, Day 56
  percent inhibition of body weight: 9.1%
[1]; infusion 69 nmol/kg/d, Day 7
  percent inhibition of body weight: 7.6%
[1]; infusion 69 nmol/kg/d, Day 14
  percent inhibition of body weight: 9.3%
[1]; infusion 69 nmol/kg/d, Day 21
  percent inhibition of body weight: 11.1%
[1]; infusion 69 nmol/kg/d, Day 28
  percent inhibition of body weight: 12.2%
[1]; infusion 69 nmol/kg/d, Day 49
  percent inhibition of body weight: 15.4%
[1]; infusion 69 nmol/kg/d, Day 56
  percent inhibition of body weight: 15.7%
[1]; infusion 69 nmol/kg/d, Day 63
  percent inhibition of body weight: 16.2%
[1]; infusion 69 nmol/kg/d, Day 70
  percent inhibition of body weight: 15.8%
[1]; infusion 70 nmol/kg/d, Day 7
  percent inhibition of body weight: 7.6%
[1]; infusion 70 nmol/kg/d, Day 14
  percent inhibition of body weight: 8.9%
[1]; infusion 70 nmol/kg/d, Day 21
  percent inhibition of body weight: 10.2%
[1]; infusion 70 nmol/kg/d, Day 28
  percent inhibition of body weight: 11.8%
GLP Receptor; read-out: Receptor Activation GLP-1/GIP/CT cyclase
  EC50: 5 nM

## [Ser117, dLeu119]leptin(116-122)-Amylin(1-7)-[^11,18Arg]sCT(8-27)-Amylin(33-37) [Compound 16]
CGRP receptors
  binding to the CGRP receptor (RBA = receptor binding assay): some binding
Calcitonin receptor
  binding to the CT receptor (RBA = receptor binding assay): bound
[4]; mouse, in vivo
  cumulative intake, % that of controls: 34-38%
CT receptor
  activation of the CT receptor (C1A assay): able to activate

## brain natriuretic peptide [BNP]
[8]
  increase in sodium excretion: 2 fold
  reduction in plasma renin, angiotensin II and aldosterone secretion: 50%
